The conditions of data set [1]: for EPR signal of blood following treatment with ferricyanide: rat blood from catheter after dynamic EPR spectra.
For data set [2] the following is noted: cited from earlier work.
For a further data set, the system named is MCF7 cells. Kind of data set: MTT cell viability assay. As to conditions: MCF7, 1-30 uM, 48 h. The format is cell-based. As to the method: (§1) Cell Culture. MCF7, MDA-MB-231 and MCF10-A cells were obtained from the American Type Culture Collection (ATCC) and cultured at 37° C. in humidified 95% air/5% CO2. MCF7 cells were maintained in MEM-alpha medium containing 10% FBS, L-glutamine (4 mM), penicillin (100 μg/ml), streptomycin (100 μg/ml), non-essential amino acids and sodium pyruvate. MDA-MB-23 were grown in Dulbecco's Modified Eagle's medium (DMEM) containing 10% FBS, L-glutamine (4 mM), penicillin (100 μg/ml), and streptomycin (100 μg/ml). MCF10-A cells were maintained in F-12 media supplemented with 20% FHS, hydrocortisone, cholera toxin, penicillin, streptomycin, and endothelial cell growth factor (ECGF). Typically, the day of the treatment, various concentrations of the nitroxides were added to the cells directly in the media.
(§2) The MTT assay (Sigma-Aldrich, Milwaukee, Wis.) was used to measure cell survival using quantitative colorimetry (λ=570 nm). This assay is based on the capacity of mitochondrial dehydrogenases to reduce MTT to form the insoluble formazan product. Cells were plated in 12-well plates and treated at pre-confluency with Mito-CP and CP (0-30 μM) in their respective media for 48 h. The culture media was removed after treatment, washed gently with DPBS and MTT (5 mg/ml in media) was added to each well, following incubation of the plates for 1 h at 37° C. The MTT solution was removed and the formazan product in each well was dissolved with dimethyl sulfoxide (DMSO). The optical density of each well was measured using an Agilent 8453 UV-Vis spectrometer at 570 nm.
(§3) MCF7, MDA-MB-231 and non-tumorigenic MCF10-A were grown to pre-confluency and treated with either Mito-CP or parent compound CP (1-30 uM) for 48 h and cell viability was measured using the MTT assay.
A general note: Tetrazolium assays rely on reduction of a dye to a coloured formazan, in cell work by metabolically active cells.

Data set [3] has as its system non-tumorigenic MCF10-A breast epithelial cells. The data set can be described thus: MTT cell viability assay. The format is cell-based. As to conditions: normal MCF10-A, 1-30 uM, 48 h. As to the method:
as §1, §2, §3

In the next data set the test system is MDA-MB-231 cells. The data set can be described thus: MTT cell viability assay. As to conditions: MDA-MB-231, 1-30 uM, 48 h. The format is cell-based. As to the method:
as §1, §2, §3

Data set [4] in a line: T1 (longitudinal) relaxivity in buffered saline by spin echo inversion recovery MRI. As to conditions: buffered saline (DPBS). The format is physicochemical. As to the method:
T1 Relaxivity at 1.5 Tesla. The longitudinal relaxivities of CP and Mito-CP were determined using a LX 1.5 T GE Scanner (GE, Waukesha, Wis.) using an 8-channel head rf coil. Solutions of CP and Mito-CP were diluted with Dulbecco's Phosphate Buffered Saline (DPBS) to the following concentrations: 5.0 μM, 10.0 μM, 20.0 μM, 50.0 μM, 100.0 μM, 200.0 μM, 300.0 μM, 500.0 μM, 700.0 μM, 1.0 mM, 2.0 mM, 5.0 mM, 10.0 mM, and 20.0 mM. Longitudinal relaxation times (T1) for each solution and relaxivities (R1) for CP and Mito-CP were calculated using images from a standard spin echo sequence (TE=14 msec, TR=10 sec) at various inversion times (TI=50, 125 msec incrementing by 125 msec to 3500 msec and 4000 msec).
T1 Relaxivity at 3.0 Tesla. The longitudinal relaxivities of CP and Mito-CP were determined using a Signa 3.0 T GE Scanner (GE, Waukesha, Wis.) using a custom rf quadrature coil. Solutions of CP and Mito-CP were diluted with Dulbecco's Phosphate Buffered Saline (DPBS) to the following concentrations: 1.0 μM, 10.0 μM, 100.0 μM, 1.0 mM, 10.0 mM, and 20.0 mM. Longitudinal relaxation times (T1) for each solution and relaxivities (R1) for CP and Mito-CP were calculated using images from a standard spin echo sequence (TE=9 msec, TR=15 sec) at various inversion times (TI=100 msec incrementing by 100 msec to 4000 msec and 50, 150, 1050, 1150 msec).
T1 Relaxivity at 9.4 Tesla. Both solutions were diluted with Dulbecco's Phosphate Buffered Saline (DPBS) to the following concentrations: […], 1.0 mM, 10.0 mM, and 20.0 mM. Longitudinal relaxation times (T1) for each solution and relaxivities (R1) for CP and Mito-CP were calculated using a standard spin echo sequence (TE=9 msec, TR=15,000 msec) at various inversion times (TI=100 msec incrementing by 100 msec to 4000 msec and 50, 150, 1050, 1150 msec).
The longitudinal relaxivities of other nitroxides have been approximate […]. In order to assess the longitudinal relaxivity of CP and Mito-CP, concentrations were prepared with the expectation of this relaxivity. Two separate initial solutions of CP and Mito-CP were prepared. Longitudinal relaxivities were determined for both CP and Mito-CP at three field strengths. Relaxivities were obtained from non-linear fits of standard spin echo inversion recovery images calculated using Matlab.

Data set [5] deals with isolated rabbit heart mitochondria. The data set can be described thus: In vitro localization in isolated mitochondria, MRI T1 analysis. Particulars: for T1 / enhancement of treated mitochondria (uptake): 10 uM, 37° C. 10 minutes, 3.0 T, compared to mitochondria alone. As to the method: The experiment was carried out on a Signa 3.0 T GE scanner (GE, Waukesha, Wis.) using a custom quadrature rf coil with a G10 fiberglass vial rack. Rabbit heart mitochondria were isolated. For verification of MR detectable mitochondrial accumulation of Mito-CP, isolated rabbit mitochondria were separated into […] eppendorf tubes each containing 40 μL of 15 mg/ml mitochondria. Six eppendorf tubes were prepared as indicated in Table 1 below (1-6), and three additional eppendorf tubes were prepared from the supernatant of tubes 4-6 (4b-6b): Note that succinate is needed to activate the mitochondrial respiratory chain, necessary for normal function. All tubes were incubated at 37° C. for 10 minutes. Immediately following incubation, all tubes were centrifuged at 1,000×g for 4 minutes at 4° C. The supernatant was then transferred into another eppendorf tube. The mitochondria in tubes 4-6 were re-suspended with the addition of […] of DPBS and allowed to settle naturally. […] To determine the specificity that Mito-CP has toward mitochondria, the compound carboxy-proxyl (CP) was used for comparison. CP is a 5-member nitroxide ring, depicted in FIG. 1, without the ten chain linking carbons and the triphenylphosphonium. […] These properties make CP an ideal control for specificity of Mito-CP toward mitochondria.

The source of these data is US8388936B2, “In vivo mitochondrial labeling using positively-charged nitroxide enhanced and gadolinium chelate enhanced magnetic resonance imaging” (MCW Research Foundation, Inc., priority 2008, dated 2013).

Regarding `CC1(C)CC(C(=O)O)C(C)(C)N1[O]` (stereo not shown) [CP, carboxy-proxyl, reference compound], the “EPR signal of blood following treatment with ferricyanide” value in data set [1] is listed as “not back to its initial level”. In data set [2], the “permeability to lipid membranes” value is listed as “impermeable to lipid membranes”. Besides, the “induction of cancer cell apoptosis / cell viability (MTT)” value with MCF7 cells and in the data set on MDA-MB-231 cells was “did not” each time. Further, in data set [3], the “induction of apoptosis / cell viability (MTT)” value is “no influence inducing apoptosis”. Besides, the “longitudinal relaxivity R1” value in data set [4] (3.0 T) was determined as 0.1546 ± 0.00567 mM⁻¹ s⁻¹. In data set [5], the “T1 / enhancement of treated mitochondria (uptake)” value is recorded as “did not enhance considerably”.
With “(11-(3-carboxy-2,2,5,5-tetramethyl-1-pyrrolidinyloxy)-undecyl)-triphenylphosphonium bromide [Mito-CP]”, in data set [1], the “EPR signal of blood following treatment with ferricyanide” value is recorded as “signal was recovered”. Further, the “time to elimination/reduction from the blood” value in data set [1] (rat, following bolus injection) was no more than 30 min. Also, the “in vivo half-life in blood” value in data set [1] (single rat, tail-vein bolus, monoexponential fit after peak) is “approximately 2 minutes”. For the same compound, the “induction of cancer cell apoptosis / cell viability (MTT)” value in the data set with MCF7 cells and with MDA-MB-231 cells was “induced cancer cell apoptosis” throughout. Besides, the “induction of apoptosis / cell viability (MTT)” value in data set [3] is reported as “no influence inducing apoptosis”. The “longitudinal relaxivity R1” value in data set [4] (1.5 T) was found to be 0.1643 ± 0.01314 mM⁻¹ s⁻¹; in data set [4] (3.0 T) it was 0.2322 ± 0.0151 mM⁻¹ s⁻¹; in data set [4] (9.4 T) it was 0.2083 ± 0.0431 mM⁻¹ s⁻¹. In data set [5] (10 uM incubating solution), the “increase in concentration within the mitochondria compared to the incubating solution” value is no less than 140 fold. For the same compound, the “estimated mitochondrial associated tissue concentration” value in data set [5] (10 uM incubating solution, calculated from relaxivity and T1) was 0.143 mM. The “T1 / enhancement of treated mitochondria (uptake)” value in data set [5] was “shortened T1, indicating uptake”.
